Data on 4 molecules can be found in paper PMC6036117, “Structural Insight Into Conformational Changes Induced by ATP Binding in a Type III Secretion-Associated ATPase From Shigella flexneri” (Frontiers in Microbiology, 2018).

Molecules are shown by their SMILES. Like-named read-outs stand apart in the source and are kept apart here.

The target of one assay is T1, Spa47Δ1-83 (Shigella flexneri, UniProt P0A1C1).
T1 construct: The cDNA encoding Spa47Δ1-83 (84–430 aa) was amplified; 6xHis (pET28a, thrombin site) (N, cleaved yes); made in house; host or cells: E. coli Rosetta (DE3)
In words: Isothermal titration calorimetry (ITC) of nucleotide binding to monomeric Spa47Δ1-83. The following applies: for Ka (affinity constant) / ΔH (enthalpy variation) / ΔS (entropy variation): ATP without Mg2+, other ligands with Mg2+. The protocol: An isothermal titration calorimetry (ITC) assay was performed with a MicroCalTM iTC200 calorimeter (MicroCal, USA) at 25°C. Both the protein and the ATP homolog were dissolved in the same buffer (20 mM Tris-HCl, pH = 8.0, 100 mM NaCl, 5 mM MgCl2). The concentrations of Spa47Δ1-83 and the mutants were between 0.03 and 0.04 mM. The concentration of ATP analogs was between 1 and 2 mM. Titration consisted of 18 consecutive 2-μl injections of ATP analogs with a 120-s interval between injections using a stir rate of 600 rpm. The dilution heat of the ligand was measured by adding ligand to a buffer solution under these conditions, and the injection schedule was identical to that used for the protein sample. For titration of the protein with ATP, MgCl2 was omitted in the buffer. Data acquisition and analysis were performed using Origin software. A single binding site model was used for nonlinear curve fitting. ITC experiments were repeated twice for each ligand.
For orientation: Isothermal titration calorimetry measures the heat released or taken up as one component is titrated into another.

The target in assay [1] is subunit B of the A1A0 ATP synthase. Set-up: method as in Kumar et al., 2009. To be noted: ATP binding; ref Kumar et al., 2009; cited from earlier work.
Another assay concerns the target muscle creatine kinase. Further details: method as in Forstner et al., 1999. To be noted: ATP binding; ref Forstner et al., 1999; cited from earlier work.
Another assay deals with p97. Set-up: method as in Tang et al., 2010. To be noted: ATP binding; ref Tang et al., 2010; cited from earlier work.
[2] abbreviates: ITC, 25°C, 20 mM Tris-HCl pH 8.0, 100 mM NaCl, 5 mM MgCl2 (MgCl2 omitted for ATP), single binding site model, Kd calculated as 1/Ka, read-out: Kd (apparent dissociation constant).

Turning to `Nc1ncnc2c1ncn2[C@@H]1O[C@H](CO[P@](=O)(O)O[P@](=O)(O)O[P@@](=O)(O)S)[C@@H](O)[C@H]1O` [ATPγS], the Kd at Spa47Δ1-83 amounted to 21.2 ± 0.8 µM. In addition, at Spa47Δ1-83 (ITC, 25°C), the “Ka (affinity constant)” value is 0.472±0.017 10^5. M^-1, the “ΔH (enthalpy variation)” value was -8.16 ± 0.16 kcal/mol and the “ΔS (entropy variation)” value is given as -6.00 cal/mole/deg.
As for `Nc1ncnc2c1ncn2[C@@H]1O[C@H](COP(=O)(O)OP(=O)(O)NP(=O)(O)O)[C@@H](O)[C@H]1O` [AMPPNP], the Kd on Spa47Δ1-83 (ITC, 25°C, 20 mM Tris-HCl pH 8.0, 100 mM NaCl, 5 mM MgCl2 (MgCl2 omitted for ATP), single binding site model, Kd calculated as 1/Ka, listed as AMP-PNP, read-out: Kd (apparent dissociation constant)) was 322 ± 12.6 µM. Besides, on Spa47Δ1-83 (setting [2]), the Kd is 322 ± 12.6 µM. For the same molecule, on Spa47Δ1-83 (ITC, 25°C), the “Ka (affinity constant)” value is listed as 0.031±0.001 10^5. M^-1, the “ΔH (enthalpy variation)” value was -7.21 ± 0.11 kcal/mol and the “ΔS (entropy variation)” value was -8.20 cal/mole/deg. Besides, the “fold lower binding affinity than ATP and ATPγS” value at Spa47Δ1-83 (ITC, relative to the affinity measured for ATP and ATPγS) is on record as ~ 15 fold.
Regarding `Nc1ncnc2c1ncn2[C@@H]1O[C@H](COP(=O)(O)OP(=O)(O)O)[C@@H](O)[C@H]1O` [ADP], the Kd on Spa47Δ1-83 (setting [2]) was 150 ± 6.03 µM. Further, on Spa47Δ1-83 (ITC, 25°C), the “Ka (affinity constant)” value is reported as 0.067±0.003 10^5. M^-1, the “ΔH (enthalpy variation)” value is -17.24 ± 3.82 kcal/mol and the “ΔS (entropy variation)” value is listed as -40.30 cal/mole/deg.
Regarding `Nc1ncnc2c1ncn2[C@@H]1O[C@H](COP(=O)(O)OP(=O)(O)OP(=O)(O)O)[C@@H](O)[C@H]1O` [ATP], the Kd was 22 µM in assay [1], 4 to 16 µM at muscle creatine kinase, 0.89 µM at p97 and 23.1 ± 3.44 µM at Spa47Δ1-83 (setting [2]). Further, the “Ka (affinity constant)” value on Spa47Δ1-83 (ITC, 25°C) is reported as 0.443±0.070 10^5. M^-1. Further, the “ΔH (enthalpy variation)” value on Spa47Δ1-83 (ITC, 25°C) was -4.99 ± 0.53 kcal/mol. Also, the “ΔS (entropy variation)” value at Spa47Δ1-83 (ITC, 25°C) came to 4.50 cal/mole/deg.
